Assay results taken from patent US9603364B2 (Dow AgroSciences LLC, priority 2013, dated 2017).

Legend:
Test in all cases: General post-emergent herbicidal activity, foliar application
Assay type in all cases: in vivo
[1] = tested on: Chenopodium album L. (lambsquarters, common); conditions: for pest or weed control at 35 g/ha: 35 g ai/ha; for pest or weed control at 70 g/ha: 70 g ai/ha; for pest or weed control at 140 g/ha: 140 g ai/ha; for GR80 Value CHEAL: calculated by probit analysis, dose for 80% visual injury, may be extrapolated
Method: (§1) A weighed amount, determined by the highest rate to be tested, of each test compound was placed in a 25 mL glass vial and was dissolved in 4 mL of a 97:3 v/v (volume/volume) mixture of acetone and dimethyl sulfoxide to obtain concentrated stock solutions which will be referred to as General Purpose Solvent. […] The concentrated stock solutions obtained were diluted with 20 mL of an aqueous mixture containing water, General Purpose Solvent, isopropyl alcohol, Atplus 411F crop oil concentrate, and Triton X-155 surfactant in a 46:42:12:1.0:0.02 v/v ratio to obtain spray solutions containing the highest application rates. Additional application rates were obtained by serial dilution of 12 mL of the high rate solution into a solution containing 2 mL of 97:3 v/v (volume/volume) mixture of acetone and dimethyl sulfoxide and 10 mL of an aqueous mixture containing water, General Purpose Solvent, isopropyl alcohol, Atplus 411F crop oil concentrate, and Triton X-155 surfactant in a 46:42:12:1.0:0.02 v/v ratio to obtain 1/2×, 1/4×, 1/8× and 1/16× rates of the high rate. […] Control plants were sprayed in the same manner with the solvent blank.
(§2) The treated plants and control plants were placed in a greenhouse as described above and watered by sub-irrigation to prevent wash-off of the test compounds. After 14 days, the condition of the test plants as compared with that of the untreated plants was determined visually and scored on a scale of 0 to 100 percent where 0 corresponds to no injury and 100 corresponds to complete kill.
(§3) By applying the well-accepted probit analysis as described by J. Berkson in […], 48, 565 (1953) and by D. Finney in “Probit Analysis” Cambridge University Press (1952), the dose response data gathered as expressed above can be used to calculate GR20, GR50 and GR80 values, which are defined as growth reduction factors that correspond to the effective dose of herbicide required to kill or control 20 percent, 50 percent or 80 percent, respectively, of a target plant. Data not expressed in Table A may have been used to calculate some of the GR80 values in Table B. In some cases, the GR80 values may be extrapolations calculated based on the slope of the dose response curve for individual compounds listed in Table B.

[2] = tested on: Euphorbia heterophylla L. (poinsettia, wild); conditions: for pest or weed control at 35 g/ha: 35 g ai/ha; for pest or weed control at 70 g/ha: 70 g ai/ha; for pest or weed control at 140 g/ha: 140 g ai/ha; for GR80 Value EPHHL: calculated by probit analysis, dose for 80% visual injury, may be extrapolated
Method: as §1, §2, §3

[3] = tested on: Echinochloa crus-galli (L.) Beauv. (barnyardgrass); conditions: for pest or weed control at 35 g/ha: 35 g ai/ha; for pest or weed control at 70 g/ha: 70 g ai/ha; for pest or weed control at 140 g/ha: 140 g ai/ha; for GR80 Value ECHCG: calculated by probit analysis, dose for 80% visual injury, may be extrapolated
Method: as §1, §2, §3

[4] = tested on: Helianthus annuus L. (sunflower, common); conditions: for pest or weed control at 35 g/ha: 35 g ai/ha; for pest or weed control at 70 g/ha: 70 g ai/ha; for pest or weed control at 140 g/ha: 140 g ai/ha; for GR80 Value HELAN: calculated by probit analysis, dose for 80% visual injury, may be extrapolated
Method: as §1, §2, §3

[5] = tested on: Viola tricolor L. (pansy); conditions: for pest or weed control at 35 g/ha: 35 g ai/ha; for pest or weed control at 70 g/ha: 70 g ai/ha; for pest or weed control at 140 g/ha: 140 g ai/ha; for GR80 Value VIOTR: calculated by probit analysis, dose for 80% visual injury, may be extrapolated
Method: as §1, §2, §3

[6] = tested on: Amaranthus retroflexus L. (pigweed, redroot); conditions: for pest or weed control at 35 g/ha: 35 g ai/ha; for pest or weed control at 70 g/ha: 70 g ai/ha; for pest or weed control at 140 g/ha: 140 g ai/ha; for GR80 Value AMARE: calculated by probit analysis, dose for 80% visual injury, may be extrapolated
Method: as §1, §2, §3

Oryza sativa L. (rice) = conditions: Oryza sativa, 336 h, scored after 14 days, read-out: % Visual Growth Reduction ORYSA; for plant injury at 35 g/ha: 35 g ai/ha; for plant injury at 70 g/ha: 70 g ai/ha; for plant injury at 140 g/ha: 140 g ai/ha
Method: as §1, §2

Zea mays L. (corn) = conditions: 336 h, scored after 14 days, read-out: % Visual Growth Reduction ZEAMX; for plant injury at 35 g/ha: 35 g ai/ha; for plant injury at 70 g/ha: 70 g ai/ha; for plant injury at 140 g/ha: 140 g ai/ha
Method: as §1, §2

[7] = Chenopodium album, 336 h, foliar post-emergent, scored after 14 days, read-out: % Visual Growth Reduction CHEAL
[8] = Euphorbia heterophylla, 336 h, foliar post-emergent, scored after 14 days, read-out: % Visual Growth Reduction EPHHL
[9] = Echinochloa crus-galli, 336 h, foliar post-emergent, scored after 14 days, read-out: % Visual Growth Reduction ECHCG
[10] = Helianthus annuus, 336 h, foliar post-emergent, scored after 14 days, read-out: % Visual Growth Reduction HELAN
[11] = Viola tricolor, 336 h, foliar post-emergent, scored after 14 days, read-out: % Visual Growth Reduction VIOTR
[12] = Amaranthus retroflexus, 336 h, foliar post-emergent, scored after 14 days, read-out: % Visual Growth Reduction AMARE

SMILES	pest or weed control at 35 g/ha [1, 7]	pest or weed control at 70 g/ha [1, 7]	pest or weed control at 140 g/ha [1, 7]	GR80 Value CHEAL [1]	pest or weed control at 35 g/ha [2, 8]	pest or weed control at 70 g/ha [2, 8]	pest or weed control at 140 g/ha [2, 8]	GR80 Value EPHHL [2]	pest or weed control at 35 g/ha [3, 9]	pest or weed control at 70 g/ha [3, 9]	pest or weed control at 140 g/ha [3, 9]	GR80 Value ECHCG [3]	pest or weed control at 35 g/ha [4, 10]	pest or weed control at 70 g/ha [4, 10]	pest or weed control at 140 g/ha [4, 10]	GR80 Value HELAN [4]	pest or weed control at 140 g/ha [5, 11]	pest or weed control at 140 g/ha [6, 12]	plant injury at 140 g/ha (Oryza sativa L. (rice))	plant injury at 140 g/ha (Zea mays L. (corn))	further results
COC(=O)c1nc(C(C)F)c(Cl)c(N)c1Cl (stereo not drawn) [Compound F10, Methyl 4-amino-3,5-dichloro-6-(1-fluoroethyl)picolinate]	80%	85%	85%	23.7 g ai/ha	0%	20%	30%	>140 g ai/ha	0%	0%	0%	>140 g ai/ha	80%	85%	100%	124 g ai/ha	0%	100%	0%	0%	pest or weed control at 35 g/ha [5, 11]: 0%; pest or weed control at 70 g/ha [5, 11]: 0%; GR80 Value VIOTR [5]: >140 g ai/ha; pest or weed control at 35 g/ha [6, 12]: 85%; pest or weed control at 70 g/ha [6, 12]: 98%; GR80 Value AMARE [6]: 18.1 g ai/ha; plant injury at 35 g/ha (Oryza sativa L. (rice)): 0%; plant injury at 70 g/ha (Oryza sativa L. (rice)): 0%; plant injury at 35 g/ha (Zea mays L. (corn)): 0%; plant injury at 70 g/ha (Zea mays L. (corn)): 0%
COC(=O)c1nc(C(C)(F)CF)cc(N)c1Cl (stereo not drawn) [Compound F11, Methyl 4-amino-3-chloro-6-(1,2-difluoropropan-2-yl)picolinate]			0%				10%				0%				70%		0%	30%	0%	0%	
COC(=O)c1nc(C(F)F)cc(N)c1Cl [Compound F12, methyl 4-amino-3-chloro-6-(difluoromethyl)picolinate]	90%	100%	100%	<17.5 g ai/ha	90%	100%	100%	29.2 g ai/ha	0%	0%	55%	249 g ai/ha	100%	100%	100%	23.1 g ai/ha	100%	100%	0%	60%	pest or weed control at 280 g/ha ([1]; Chenopodium album, 336 h, 280 g ai/ha, foliar post-emergent, scored after 14 days, read-out: % Visual Growth Reduction CHEAL): 100%; pest or weed control at 280 g/ha ([2]; Euphorbia heterophylla, 336 h, 280 g ai/ha, foliar post-emergent, scored after 14 days, read-out: % Visual Growth Reduction EPHHL): 100%; pest or weed control at 280 g/ha ([3]; Echinochloa crus-galli, 336 h, 280 g ai/ha, foliar post-emergent, scored after 14 days, read-out: % Visual Growth Reduction ECHCG): 80%; pest or weed control at 280 g/ha ([4]; Helianthus annuus, 336 h, 280 g ai/ha, foliar post-emergent, scored after 14 days, read-out: % Visual Growth Reduction HELAN): 100%; pest or weed control at 35 g/ha [5, 11]: 90%; pest or weed control at 70 g/ha [5, 11]: 100%; pest or weed control at 280 g/ha ([5]; Viola tricolor, 336 h, 280 g ai/ha, foliar post-emergent, scored after 14 days, read-out: % Visual Growth Reduction VIOTR): 100%; GR80 Value VIOTR [5]: 29.2 g ai/ha; pest or weed control at 35 g/ha [6, 12]: 80%; pest or weed control at 70 g/ha [6, 12]: 100%; pest or weed control at 280 g/ha ([6]; Amaranthus retroflexus, 336 h, 280 g ai/ha, foliar post-emergent, scored after 14 days, read-out: % Visual Growth Reduction AMARE): 100%; GR80 Value AMARE [6]: 26.8 g ai/ha; plant injury at 35 g/ha (Oryza sativa L. (rice)): 0%; plant injury at 70 g/ha (Oryza sativa L. (rice)): 0%; plant injury at 280 g/ha (Oryza sativa L. (rice); 280 g ai/ha): 8%; plant injury at 35 g/ha (Zea mays L. (corn)): 15%; plant injury at 70 g/ha (Zea mays L. (corn)): 30%; plant injury at 280 g/ha (Zea mays L. (corn); 280 g ai/ha): 70%
Nc1c(Cl)c(C(=O)O)nc(C(F)F)c1Cl [Compound F13, 4-Amino-3,5-dichloro-6-(difluoromethyl)picolinic acid]	90%	90%	90%	25.1 g ai/ha	100%	100%	100%	21.7 g ai/ha	0%	0%	10%	>149 g ai/ha	60%	75%	85%	85.8 g ai/ha	0%	90%	0%	5%	pest or weed control at 35 g/ha [5, 11]: 0%; pest or weed control at 70 g/ha [5, 11]: 0%; GR80 Value VIOTR [5]: >140 g ai/ha; pest or weed control at 35 g/ha [6, 12]: 90%; GR80 Value AMARE [6]: 27.6 g ai/ha; plant injury at 35 g/ha (Oryza sativa L. (rice)): 0%; plant injury at 70 g/ha (Oryza sativa L. (rice)): 0%; plant injury at 35 g/ha (Zea mays L. (corn)): 0%; plant injury at 70 g/ha (Zea mays L. (corn)): 0%
